PMC7108740, “Exploring the molecular structures that confer ligand selectivity for galanin type II and III receptors” (PLoS ONE, 2020)
Where a chain is given by its changes, count along the chain named. Ends that are not written are not given here.

Key:
[1] = biological target: T1, GALR3 double mutant L^100F, Y^107H (Homo sapiens, UniProt O60755, L100F/Y107H); assay: SRE-luc luciferase assay, GALR3 L100F,Y107H; format: cell-based; settings: GALR3 L^100F, SRE-luc in HEK293 Gqi cells, ligand 6 h, mean ± S.E., SEM
T1 construct: expressed in transfected cells; host or cells: HEK293 cells stably expressing Gqi
T1 sequence (O60755 1-368 L100F/Y107H): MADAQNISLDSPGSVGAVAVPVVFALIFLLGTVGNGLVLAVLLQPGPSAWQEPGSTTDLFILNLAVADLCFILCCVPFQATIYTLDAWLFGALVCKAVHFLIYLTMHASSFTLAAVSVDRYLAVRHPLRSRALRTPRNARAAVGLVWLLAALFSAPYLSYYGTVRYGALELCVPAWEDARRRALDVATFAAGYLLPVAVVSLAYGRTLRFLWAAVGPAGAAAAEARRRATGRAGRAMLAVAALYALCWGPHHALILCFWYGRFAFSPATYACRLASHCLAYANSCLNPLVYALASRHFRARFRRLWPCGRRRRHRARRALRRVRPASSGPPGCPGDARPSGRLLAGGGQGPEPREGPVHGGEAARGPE
Text: (§1) For domain swapping between GALR2 and GALR3, individual cDNA fragments of interest were amplified by polymerase chain reaction (PCR) with Pfu polymerase (ELPIS Biotech, Daejeon, Korea) and two specific primers, one corresponding to the 5' or 3' end of the GALR2 or GALR3 cDNA and the other to the region of overlap between the two receptors. The two resulting fragments, one from GALR2 and the other from GALR3, were subjected to a second round of PCR to generate the chimeric cDNAs. To construct single, double-, triple-, pentuple-, hextuple-, and septuple-mutant receptors, amino acids of GALR3 were substituted for the amino acids at the corresponding positions in GALR2 using PCR-based site-directed mutagenesis. All of the chimeric constructs were cloned into the pcDNA3 expression vector at HindⅢ and XbaⅠ sites. The DNA sequences of the chimeras were verified by automatic sequencing. HEK293 cells stably expressing the Gqi construct, which allows induction of Gq-dependent signaling pathways upon activation of a Gi-coupled receptor [14, 30], were maintained in Dulbecco's Modified Eagle's Medium (DMEM) in the presence of 10% fetal bovine serum and 1% penicillin and streptomycin. For all transfections, 200 ng DNA (100 ng receptor and 100 ng SRE-luc) mixed with lipofectamine 2000 was applied to 60–80% confluent cells on a multi-well plate according to the manufacturer's instructions (Invitrogen, Carlsbad, CA). For luciferase assays, HEK293 Gqi cells were seeded on 48-well plates at a density of 2.5 × 10^4 cells/well one day before transfection. […] The luciferase activity in 50 μl cell extract was determined using a luciferase assay system according to the standard protocol for the Synergy 2 Multi-Mode Microplate Reader (BioTek, Winooski, VT, USA). […] The concentrations of agonists that induced half-maximal stimulation (EC50) were calculated using the GraphPad PRISM5 software (GraphPad software, Inc., San Diego, CA). […]

[2] = biological target: T2, GALR3 single mutant L^100F (Homo sapiens, UniProt O60755, L100F); assay: SRE-luc luciferase assay, GALR3 L100F; format: cell-based; settings: GALR3 L^100F; SRE-luc in HEK293 Gqi cells, ligand 6 h; mean ± S.E.; SEM
T2 construct: expressed in transfected cells; host or cells: HEK293 cells stably expressing Gqi
T2 sequence (O60755 1-368 L100F): T1 sequence (O60755 1-368 L100F/Y107H) with H107Y
Text: as §1

| EC50 [1] [nM] | EC50 [2] [nM] | Compound |
| --- | --- | --- |
| 38.9 ± 7.28 | 66.1 ± 13.6 | CSCC[C@H](NC(=O)[C@H](C)NC(=O)[C@H](CCC(N)=O)NC(=O)[C@@H]1CCCN1C(=O)[C@@H](NC(=O)[C@H](Cc1c[nH]c2ccccc12)NC(=O)[C@@H](N)CC(N)=O)[C@@H](C)O)C(=O)N[C@@H](CC(C)C)C(=O)N[C@@H](Cc1ccc(O)cc1)C(=O)N[C@@H](CC(C)C)C(=O)N[C@@H](CCCCN)C(=O)NCC(=O)N[C@@H](C)C(=O)N[C@@H](CCC(N)=O)C(N)=O [SPX, reference compound] |
| 155 ± 40.1 | 288 ± 84.2 | NWTPNAMLYLKGAQ-NH2 [N^5-SPX] |
| 69.2 ± 20.2 | 269 ± 45.3 | NWTPQAALYLKGAQ-NH2 [A^7-SPX] |
